Experiments:
recombinant human HDAC1 = molecular target: T1, recombinant human HDAC1 (Homo sapiens, UniProt Q13547); test: In vitro enzyme assay of recombinant HDAC1; assay type: biochemical; conditions: recombinant human HDAC1, acetylated histone H4 peptide; read-out: IC50 (nM) Test (a) (In vitro assay for the inhibition of HDAC1)
T1 construct: FLAG (C); made in house; host or cells: Hi5 insect cells
Procedure: HDAC inhibitors were screened against recombinant human HDAC1 produced in Hi5 insect cells. The enzyme was cloned with a FLAG tag at the C-terminal of the gene and affinity purified using Anti-FLAG M2 agarose from SIGMA (A2220).
The deacetylase assays were carried out in a 50 μl reaction. HDAC1 (75 ng of enzyme) diluted in 15 μl of reaction buffer (25 mM TrisHCl (pH 8), 137 mM NaCl, 2.7 mM KCl, 1 mM MgCl2) was mixed with either buffer alone (10 μl) or buffer containing compound (10 μl) for 30 minutes at ambient temperature. 25 μM acetylated histone H4 peptide (KI 174 Biomol) diluted in 25 μl of buffer was then added to the reaction and incubated for one hour at ambient temperature. The reaction was stopped by addition of an equal volume (50 μl) of Fluor de Lys developer (Biomol) containing Trichostatin A at 2 μM. The reaction was allowed to develop for 30 minutes at ambient temperature and then fluorescence measured at an excitation wavelength of 360 nm and an emission wavelength of 465 nm. IC50 values for HDAC enzyme inhibitors were determined by performing dose response curves with individual compounds and determining the concentration of inhibitor producing fifty percent decrease in the maximal signal (diluent control).

HCT116 cells = test: In vitro assay of inhibition of proliferation in whole cells (MTS); assay type: cell-based; conditions: Homo sapiens, HCT-116, 72 hours, read-out: IC50 (nM) Test (b) (In vitro assay for the inhibition of whole cell proliferation)
Procedure: Inhibition of proliferation in whole cells was assayed using the Promega cell titer 96 aqueous proliferation assay (Promega #G5421). HCT116 cells were seeded in 96 well plates at 1×10^3 cells/well, and allowed to adhere overnight. They were treated with inhibitors for 72 hours. 20 μl of the tetrazolium dye MTS was added to each well and the plates were re-incubated for 3 hours. Absorbance was then measured on a 96 well plate reader at […]. The IC50 values for HDAC inhibitors were determined by performing dose response curves with individual compounds and determining the concentration of inhibitor producing fifty percent decrease in the maximal signal (diluent control).

T1 sequence (Q13547 whole entry): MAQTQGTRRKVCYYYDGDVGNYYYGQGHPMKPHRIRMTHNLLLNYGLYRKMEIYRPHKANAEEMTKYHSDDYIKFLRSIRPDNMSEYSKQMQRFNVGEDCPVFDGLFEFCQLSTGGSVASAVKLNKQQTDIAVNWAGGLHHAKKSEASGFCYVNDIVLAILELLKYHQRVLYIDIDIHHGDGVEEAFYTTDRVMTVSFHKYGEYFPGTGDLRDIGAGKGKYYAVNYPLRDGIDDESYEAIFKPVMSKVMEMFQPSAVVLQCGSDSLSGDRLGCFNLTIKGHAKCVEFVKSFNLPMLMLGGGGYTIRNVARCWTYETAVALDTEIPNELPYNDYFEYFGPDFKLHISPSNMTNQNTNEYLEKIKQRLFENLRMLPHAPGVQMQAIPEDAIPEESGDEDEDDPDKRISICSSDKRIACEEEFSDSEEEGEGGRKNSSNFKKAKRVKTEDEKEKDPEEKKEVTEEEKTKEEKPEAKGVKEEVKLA

SMILES: CC(C)NCc1cnc(-c2ccc(C(=O)Nc3ccccc3N)cc2)s1 [Example 1, N-(2-aminophenyl)-4-{5-[(isopropylamino)methyl]-1,3-thiazol-2-yl}benzamide]
- IC50 (recombinant human HDAC1): 29 nM
- IC50 (HCT116 cells): 183 nM

— patent publication US20090312556A1, “N-(2-AMINIPHENYL)-4-(5-((ETHYLAMINO)METHYL)-1,2-THIAZOL-2-YL) BENZAMIDE AND N-(2-AMINOPHENYL)-4-(5-((ISOPROPYLAMINO)METHYL)-1,2-THIAZOL-2-YL) BENZAMIDE AS HDAC INHIBITORS” (ASTRAZENECA R& D ALDERLY, priority 2004, published 2009)
